# In US10202354B2, “Therapeutic compounds and uses thereof” (GENENTECH, INC., priority 2015, dated 2019):
# Biological target: Full length KDM2B (Homo sapiens (Human), UniProt Q8NHM5)
# Experiment: KDM2B TR-FRET Assay for Determining Inhibitor IC50
# Assay type: biochemical
# Details: TR-FRET (HTRF), biotin-H3K36me2 peptide substrate
# Source text: KDM2B TR-FRET Assay for Determining Inhibitor IC50
# The KDM2B TR-FRET Assay described above represents an additional embodiment of the invention.
# Full length KDM2B, sequence (Q8NHM5 whole entry): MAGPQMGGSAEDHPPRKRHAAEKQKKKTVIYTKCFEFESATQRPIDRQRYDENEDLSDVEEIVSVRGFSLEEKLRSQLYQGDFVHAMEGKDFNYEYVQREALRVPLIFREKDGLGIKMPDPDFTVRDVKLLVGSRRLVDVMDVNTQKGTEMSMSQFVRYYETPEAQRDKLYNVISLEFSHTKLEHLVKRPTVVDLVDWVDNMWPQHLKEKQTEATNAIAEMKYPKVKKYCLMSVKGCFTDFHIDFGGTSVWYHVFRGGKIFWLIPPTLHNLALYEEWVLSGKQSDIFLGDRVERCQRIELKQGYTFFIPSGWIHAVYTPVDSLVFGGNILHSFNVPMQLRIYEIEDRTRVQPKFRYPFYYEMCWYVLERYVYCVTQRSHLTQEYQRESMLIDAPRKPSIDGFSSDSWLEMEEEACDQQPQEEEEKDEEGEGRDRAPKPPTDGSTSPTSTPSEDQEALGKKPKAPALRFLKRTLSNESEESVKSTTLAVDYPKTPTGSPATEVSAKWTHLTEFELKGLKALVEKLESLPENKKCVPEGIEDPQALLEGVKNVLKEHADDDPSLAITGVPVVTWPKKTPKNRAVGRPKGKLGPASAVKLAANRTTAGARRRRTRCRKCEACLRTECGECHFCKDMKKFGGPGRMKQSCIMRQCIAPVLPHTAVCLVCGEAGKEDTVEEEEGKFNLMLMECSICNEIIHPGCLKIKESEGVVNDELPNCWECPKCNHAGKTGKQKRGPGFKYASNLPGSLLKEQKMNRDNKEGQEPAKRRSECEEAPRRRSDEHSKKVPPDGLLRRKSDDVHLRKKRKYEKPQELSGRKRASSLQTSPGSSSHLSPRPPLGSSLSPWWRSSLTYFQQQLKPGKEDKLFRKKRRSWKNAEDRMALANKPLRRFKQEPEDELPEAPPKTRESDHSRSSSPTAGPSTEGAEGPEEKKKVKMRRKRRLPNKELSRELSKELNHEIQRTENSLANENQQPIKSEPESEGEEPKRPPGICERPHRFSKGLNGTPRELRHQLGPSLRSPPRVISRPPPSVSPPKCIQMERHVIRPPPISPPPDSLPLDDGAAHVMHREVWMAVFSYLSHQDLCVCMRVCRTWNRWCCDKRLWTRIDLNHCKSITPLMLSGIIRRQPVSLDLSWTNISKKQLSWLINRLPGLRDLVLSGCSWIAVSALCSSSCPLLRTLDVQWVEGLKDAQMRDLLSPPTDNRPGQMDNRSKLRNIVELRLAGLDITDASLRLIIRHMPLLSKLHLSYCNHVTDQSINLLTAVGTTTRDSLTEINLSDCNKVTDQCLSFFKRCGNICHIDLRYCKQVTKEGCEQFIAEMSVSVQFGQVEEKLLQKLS
row,IC50 [nM],Compound
1,0.053,"N#Cc1ccccc1-c1ccc(S(=O)(=O)N2CCN=C2N2CCN(C3CCC3)CC2)cc1 [Example 1, 2-[4-[[2-(4-cyclobutylpiperazin-1-yl)-4,5-dihydroimidazol-1-yl]sulfonyl]phenyl]benzonitrile]"
2,0.098,"COc1cccc(-c2ccc(S(=O)(=O)N3CCN=C3N3CCN(C4CCC4)CC3)cc2)c1 [Example 2, 1-cyclobutyl-4-[1-[4-(3-methoxyphenyl)phenyl]sulfonyl-4,5-dihydroimidazol-2-yl]piperazine]"
3,0.08,"COc1ccc(-c2ccc(S(=O)(=O)N3CCN=C3N3CCN(C4CCC4)CC3)cc2)cc1 [Example 3, 1-cyclobutyl-4-[1-[4-(4-methoxyphenyl)phenyl]sulfonyl-4,5-dihydroimidazol-2-yl]piperazine]"
4,0.102,"O=S(=O)(c1ccc(-c2ccccc2C(F)(F)F)cc1)N1CCN=C1N1CCN(C2CCC2)CC1 [Example 4, 1-cyclobutyl-4-[1-[4-[2-(trifluoromethyl)phenyl]phenyl]sulfonyl-4,5-dihydroimidazol-2-yl]piperazine]"
5,0.097,"N#Cc1ccc(-c2ccc(S(=O)(=O)N3CCN=C3N3CCN(C4CCC4)CC3)cc2)cc1 [Example 5, 4-[4-[[2-(4-cyclobutylpiperazin-1-yl)-4,5-dihydroimidazol-1-yl]sulfonyl]phenyl]benzonitrile]"
6,0.102,"O=S(=O)(c1ccc(-c2ccccn2)cc1)N1CCN=C1N1CCN(C2CCC2)CC1 [Example 6, 1-cyclobutyl-4-[1-[4-(2-pyridyl)phenyl]sulfonyl-4,5-dihydroimidazol-2-yl]piperazine]"
7,0.151,"O=S(=O)(c1ccc(-c2cccnc2)cc1)N1CCN=C1N1CCN(C2CCC2)CC1 [Example 7, 1-cyclobutyl-4-[1-[4-(3-pyridyl)phenyl]sulfonyl-4,5-dihydroimidazol-2-yl]piperazine]"
8,0.077,"Cc1ccccc1-c1ccc(S(=O)(=O)N2CCN=C2N2CCN(C3CCC3)CC2)cc1 [Example 8, 1-cyclobutyl-4-[1-[4-(o-tolyl)phenyl]sulfonyl-4,5-dihydroimidazol-2-yl]piperazine]"
9,0.074,"Cc1cccc(-c2ccc(S(=O)(=O)N3CCN=C3N3CCN(C4CCC4)CC3)cc2)c1 [Example 9, 1-cyclobutyl-4-[1-[4-(m-tolyl)phenyl]sulfonyl-4,5-dihydroimidazol-2-yl]piperazine]"
10,0.145,"Cc1ccc(-c2ccc(S(=O)(=O)N3CCN=C3N3CCN(C4CCC4)CC3)cc2)cc1 [Example 10, 1-cyclobutyl-4-[1-[4-(p-tolyl)phenyl]sulfonyl-4,5-dihydroimidazol-2-yl]piperazine]"
11,0.134,"O=S(=O)(c1ccc(-c2cccc(C(F)(F)F)c2)cc1)N1CCN=C1N1CCN(C2CCC2)CC1 [Example 11, 1-cyclobutyl-4-[1-[4-[3-(trifluoromethyl)phenyl]phenyl]sulfonyl-4,5-dihydroimidazol-2-yl]piperazine]"
12,0.38,"O=S(=O)(c1ccc(-c2ccc(C(F)(F)F)cc2)cc1)N1CCN=C1N1CCN(C2CCC2)CC1 [Example 12, 1-cyclobutyl-4-[1-[4-[4-(trifluoromethyl)phenyl]phenyl]sulfonyl-4,5-dihydroimidazol-2-yl]piperazine]"
13,0.048,"O=S(=O)(c1ccc(-c2ccccc2)cc1)N1CCN=C1N1CCN(C2CCC2)CC1 [Example 14, 1-cyclobutyl-4-[1-(4-phenylphenyl)sulfonyl-4,5-dihydroimidazol-2-yl]piperazine]"
14,0.037,"O=S(=O)(c1ccc(-c2ccccc2O)cc1)N1CCN=C1N1CCN(C2CCC2)CC1 [Example 15, 2-[4-[[2-(4-cyclobutylpiperazin-1-yl)-4,5-dihydroimidazol-1-yl]sulfonyl]phenyl]phenol]"
15,0.034,"O=S(=O)(c1ccc(-c2cccc(O)c2)cc1)N1CCN=C1N1CCN(C2CCC2)CC1 [Example 16, 3-[4-[[2-(4-cyclobutylpiperazin-1-yl)-4,5-dihydroimidazol-1-yl]sulfonyl]phenyl]phenol]"
16,0.021,"O=S(=O)(c1ccc(-c2ccc(O)cc2)cc1)N1CCN=C1N1CCN(C2CCC2)CC1 [Example 17, 4-[4-[[2-(4-cyclobutylpiperazin-1-yl)-4,5-dihydroimidazol-1-yl]sulfonyl]phenyl]phenol]"
17,0.095,"O=S(=O)(c1ccc(-c2ccncc2)cc1)N1CCN=C1N1CCN(C2CCC2)CC1 [Example 18, 1-cyclobutyl-4-[1-[4-(4-pyridyl)phenyl]sulfonyl-4,5-dihydroimidazol-2-yl]piperazine]"
18,0.027,"O=S(=O)(c1ccc(-c2cccs2)cc1)N1CCN=C1N1CCN(C2CCC2)CC1 [Example 19, 1-cyclobutyl-4-[1-[4-(2-thienyl)phenyl]sulfonyl-4,5-dihydroimidazol-2-yl]piperazine]"
19,0.021,"O=S(=O)(c1ccc(-c2ccsc2)cc1)N1CCN=C1N1CCN(C2CCC2)CC1 [Example 20, 1-cyclobutyl-4-[1-[4-(3-thienyl)phenyl]sulfonyl-4,5-dihydroimidazol-2-yl]piperazine]"

row,IC50 [nM],Compound
1,0.084,"O=S(=O)(c1ccc(-c2ccccc2Cl)cc1)N1CCN=C1N1CCN(C2CCC2)CC1 [Example 21, 1-[1-[4-(2-chlorophenyl)phenyl]sulfonyl-4,5-dihydroimidazol-2-yl]-4-cyclobutyl-piperazine]"
2,0.12,"O=S(=O)(c1ccc(-c2cccc(Cl)c2)cc1)N1CCN=C1N1CCN(C2CCC2)CC1 [Example 22, 1-[1-[4-(3-chlorophenyl)phenyl]sulfonyl-4,5-dihydroimidazol-2-yl]-4-cyclobutyl-piperazine]"
3,0.275,"O=S(=O)(c1ccc(-c2ccc(Cl)cc2)cc1)N1CCN=C1N1CCN(C2CCC2)CC1 [Example 23, 1-[1-[4-(4-chlorophenyl)phenyl]sulfonyl-4,5-dihydroimidazol-2-yl]-4-cyclobutyl-piperazine]"
4,0.05,"COc1ccccc1-c1ccc(S(=O)(=O)N2CCN=C2N2CCN(C3CCC3)CC2)cc1 [Example 24, 1-cyclobutyl-4-[1-[4-(2-methoxyphenyl)phenyl]sulfonyl-4,5-dihydroimidazol-2-yl]piperazine]"
5,0.046,"O=S(=O)(c1ccc(-c2ccccc2F)cc1)N1CCN=C1N1CCN(C2CCC2)CC1 [Example 25, 1-cyclobutyl-4-[1-[4-(2-fluorophenyl)phenyl]sulfonyl-4,5-dihydroimidazol-2-yl]piperazine]"
6,0.138,"O=S(=O)(c1ccc(-c2cccc(F)c2)cc1)N1CCN=C1N1CCN(C2CCC2)CC1 [Example 26, 1-cyclobutyl-4-[1-[4-(3-fluorophenyl)phenyl]sulfonyl-4,5-dihydroimidazol-2-yl]piperazine]"
7,0.071,"O=S(=O)(c1ccc(-c2ccc(F)cc2)cc1)N1CCN=C1N1CCN(C2CCC2)CC1 [Example 27, 1-cyclobutyl-4-[1-[4-(4-fluorophenyl)phenyl]sulfonyl-4,5-dihydroimidazol-2-yl]piperazine]"
8,0.049,"Cn1ccc(-c2ccc(S(=O)(=O)N3CCN=C3N3CCN(C4CCC4)CC3)cc2)n1 [Example 28, 1-cyclobutyl-4-[1-[4-(1-methylpyrazol-3-yl)phenyl]sulfonyl-4,5-dihydroimidazol-2-yl]piperazine]"
9,0.049,"Cn1nccc1-c1ccc(S(=O)(=O)N2CCN=C2N2CCN(C3CCC3)CC2)cc1 [Example 29, 1-cyclobutyl-4-[1-[4-(2-methylpyrazol-3-yl)phenyl]sulfonyl-4,5-dihydroimidazol-2-yl]piperazine]"
10,0.06,"O=S(=O)(c1ccc(-c2cncnc2)cc1)N1CCN=C1N1CCN(C2CCC2)CC1 [Example 30, 5-[4-[[2-(4-cyclobutylpiperazin-1-yl)-4,5-dihydroimidazol-1-yl]sulfonyl]phenyl]pyrimidine]"
11,0.043,"CC(C)c1ccc(S(=O)(=O)N2CCN=C2N2CCN(C3CCC3)CC2)cc1 [Example 31, 1-cyclobutyl-4-(1-((4-isopropylphenyl)sulfonyl)-4,5-dihydro-1H-imidazol-2-yl)piperazine]"
12,0.016,"O=S(=O)(c1ccc2c(c1)CCCC2)N1CCN=C1N1CCN(C2CCC2)CC1 [Example 32, 1-cyclobutyl-4-(1-tetralin-6-ylsulfonyl-4,5-dihydroimidazol-2-yl)piperazine]"
13,8.51,"CCN1CCN(C2=NCCN2S(=O)(=O)c2ccccc2OC(F)(F)F)CC1 [Example 33, 1-ethyl-4-[1-[2-(trifluoromethoxy)phenyl]sulfonyl-4,5-dihydroimidazol-2-yl]piperazine]"
14,0.058,"O=S(=O)(c1ccc(C2CC2)cc1)N1CCN=C1N1CCN(C2CCC2)CC1 [Example 34, 1-cyclobutyl-4-[1-(4-cyclopropylphenyl)sulfonyl-4,5-dihydroimidazol-2-yl]piperazine]"
15,0.087,"O=S(=O)(c1cccc(C2CC2)c1)N1CCN=C1N1CCN(C2CCC2)CC1 [Example 35, 1-cyclobutyl-4-[1-(3-cyclopropylphenyl)sulfonyl-4,5-dihydroimidazol-2-yl]piperazine]"
16,0.13,"N#Cc1ccc2cc(S(=O)(=O)N3CCN=C3N3CCN(C4CCC4)CC3)ccc2c1 [Example 36, 6-[[2-(4-cyclobutylpiperazin-1-yl)-4,5-dihydroimidazol-1-yl]sulfonyl]naphthalene-2-carbonitrile]"
17,0.689,"CC(C)c1ccc(S(=O)(=O)N2CCN=C2N2CCN(C3CCC3)C(C)C2)cc1 (stereo not drawn) [Example 37, 1-cyclobutyl-4-[1-(4-isopropylphenyl)sulfonyl-4,5-dihydroimidazol-2-yl]-2-methyl-piperazine]"
18,0.492,"CC(C)c1ccc(S(=O)(=O)N2CCN=C2N2CCN(CC3CC3C)CC2)cc1 (stereo not drawn) [Example 38, 1-[1-(4-isopropylphenyl)sulfonyl-4,5-dihydroimidazol-2-yl]-4-[(2-methylcyclopropyl)methyl]piperazine]"
19,0.86,"CC1CC(N2CCN(C3=NCCN3S(=O)(=O)c3ccc(C(C)C)cc3)CC2)C1 (stereo not drawn) [Example 39, 1-[1-(4-isopropylphenyl)sulfonyl-4,5-dihydroimidazol-2-yl]-4-(3-methylcyclobutyl)piperazine]"

row,Compound,IC50 [nM]
1,N#Cc1cccc(-c2ccc(S(=O)(=O)N3CCN=C3N3CCN(C4CCC4)CC3)cc2)c1 [Example 13],0.145
